Measured values: patent US7217833B2, “Carboxylic acid compounds for use as surfactants” (Glaxco Group Limited, priority 2002, dated 2007)

Columns and labels:
Type in all cases: physicochemical
[1] = Particle size by image analysis (Galai CIS-100) of salmeterol xinafoate suspension in HFA 134a
Procedure: (§1) Salmeterol xinafoate formulations in HFA 134a, of strength 25 μg per actuation, and 10% w/w (relative to drug) of the relevant surfactant compound of formula (I) were prepared in crimped glass bottles using salmeterol xinafoate (8.7 mg), HFA 134a (18 g) and the relevant compound (0.87 mg). The control was prepared without the addition of a surfactant.
In this measurement, particle size is represented as the equivalent diameter of a circle of equal area to the object. The mean is the average of 4 determinations. The particle size measurement was obtained by transferring the suspensions to a pressurised cell, and video-imaging the sample under shear via a microscope objective.
The equivalent diameter is defined as the diameter of a circle of equal area to the object.
The mean equivalent diameter can be weighted by number, length or volume. e.g. For three particles with equivalent diameters of x, y and z: […]

[2] = Andersen Cascade Impaction of salmeterol xinafoate HFA 134a formulation; details: Initial timepoint, beginning of use, mean of 3 cans/inhalers, 10% w/w surfactant
Procedure: as §1
The formulation, the preparation of which is described above, was profiled using an Andersen Cascade Impactor. Ten actuations at “beginning of use” (BoU) were collected in the impactor from an inhaler after 4 priming actuations were fired to waste. The drug delivered was then quantified by HPLC analysis. Testing was performed at the initial timepoint (following sample preparation). The results, in Table 2 are shown as the mean analysis of 3 cans/inhalers.
The profile obtained was used to determine total dose emitted dose (ex-valve and ex-actuator) and the fine particle mass (FPM, defined as the sum of stages 3–5). The percentage fine particle mass expresses the FPM as a percentage of the total dose emitted (ex-valve). The FPM is used as a measure of the proportion of the drug likely to reach the therapeutic target in the lungs.

[3] = Content uniformity by dose through use testing; details: Initial timepoint, 10% w/w surfactant
Procedure: as §1
The content uniformity of the formulation, the preparation of which is described above, was assessed by dose through use testing. Testing was performed on 10 cans/inhalers at “beginning of use” (BoU) and “end of use” (EoU). After each inhaler had been primed (4 shots fired to waste), actuations 1 and 2 (BoU) were collected. The next 116 actuations of each inhaler were then fired to waste using an automated method and actuations 119 and 120 (EoU) collected.
Assessment of content uniformity was performed at the initial timepoint (following sample preparation). Mean results from the two BoU actuations (1+2 for 10 inhalers) and the two EoU actuations (119+120 for same 10 inhalers) together with the percentage relative standard deviation (% RSD) for the 10 cans are shown in Table 3. […] The presence of the surfactant therefore improves the content uniformity of the inhaler. Furthermore the formulations containing the compound of Example 1, advantageously, show a reduction in the relative standard deviation at the BoU and EoU.

SMILES: O=C(CCC(F)(F)C(F)(F)F)OCC(OC(=O)CCC(F)(F)C(F)(F)F)C(=O)O (centres unmarked) [Example 1, 2,3-Bis[(4,4,5,5,5-pentafluoronentanoyl)oxy]propanoic acid]
- Mean Length weighted diameter ([1]; salmeterol xinafoate 25 μg per actuation in HFA 134a with 10% w/w (relative to drug) surfactant, mean of 4 determinations): 21.5 μm
- suspension stabilising properties (flocculation of drug particles) ([1]; salmeterol xinafoate formulation in HFA 134a with 10% w/w surfactant): has suspension stabilising properties
- Total Dose Emitted (Ex-Actuator) ([2]; 10 actuations): 21.1 µg
- Total Dose Emitted (Ex-Valve) ([2]; 10 actuations): 23.9 µg
- % FPM (FPM as percentage of total dose emitted ex-valve) [2]: 50.3%
- FPM (fine particle mass, sum of stages 3–5) [2]: 12.0 µg
- BoU dose ([3]; actuations 1+2, mean of 10 inhalers): 21.2 µg
- EoU dose ([3]; actuations 119+120, mean of 10 inhalers): 25.1 µg
